Measured values taken from patent publication US11458212B2, “Molecular imaging of cancer cells in vivo” (H. Lee Moffitt Cancer Center and Research Institute, Inc., priority 2011, dated 2022).
“Also recorded” adds a separate entry of the source.

Columns and labels:
parental HEK293 cells = test: TLR2 functional bioassay in parental HEK293 cells (negative control); format: cell-based; details: ligand stimulated HEK293 cells
From the text: In Vitro TLR2 Functional Bioassay The in vitro TLR2 functional bioassay was developed and optimized for use in screening soluble compound libraries to identify both TLR2 agonists and antagonists. In this study, the TLR2 functional bioassay was used as a fast high throughput screening to identify TLR2 agonist ligands by measuring the inducing activity of NF-κB. HEK293/hTLR2 cells, highly overexpressing human TLR2, were used along with the parental HEK293, cells as a negative control. […] On day 4 after 24 hrs of peptide stimulation, luciferase induced activity by the induction of NF-κB was measured. […] The luminescence intensity was measured using the standard luminescence protocol on a Victor™ X4 plate-reader equipped with a plate stacker for readout of multiple plates at a time (PerkinElmer, Waltham, Mass.). […] Data were analyzed with GraphPad Prism software and curves were generated with the appropriate nonlinear fit regression analysis.
The in vitro TLR2 functional bioassay was developed and optimized for use in high-throughput screening of soluble compound libraries to identify both TLR2 agonists and antagonists. […] On day 4 after 24 h of peptide stimulation, luciferase induced activity by the induction of NF-κB was measured. […]

[1] = test system: Trp1455/9M-specific CD8 T cells; test: In vivo cellular immune response assay (immune adjuvant); set-up: species or system B6 mice; details: for fluorescence of stained tetramer positive CD8 T cells: day 7; for maximum amount of fluorescently stained tetramer positive CD8 T cells: day 7, peripheral blood, i.v. immunization, n=3
Procedure: To assess the efficacy of T-02 as an immune adjuvant, mice were immunized i.v. with a mixture of 100 μg optimized Trp1455/9M peptide (Guevara-Patino, J. A., et al. J Clin Invest, 2006. 116(5):1382-90), 50 μg anti-CD40 mAb (Clone; FGk-45.5), and 50 μg TLR-2 peptide (T-02, Pam2CSK4, or Pam3CSK4). […] The response of tetramer+ CD8 T cells in the blood was measured on day 7, 21, and 34 by tetramer staining. For tetramer staining, peripheral blood was taken from the submandibular vein and treated briefly with ammonium chloride buffer to lyse red blood cells. Blood cells were stained with FITC-conjugated anti-MHC class II, PerCP Cy5.5-conjugated CD8a (both from eBioscience, San Diego, Calif.), and phycoerythrin-conjugated Trp1455/9M/H-2D^b tetramers (provided by the NIH tetramer Facility, Emory University, Atlanta Ga.) for 40 min in ice. Fluorescence was evaluated using a FACSCalibur™ flow cytometer (BD Biosciences) and analyzed using FlowJo software.
C57BL/6 (B6) mice 6-8 weeks old were purchased from Charles River (Wilmington, Mass.). To assess the efficacy of 10 as an immune adjuvant, B6 mice were immunized i.v. with a mixture (in a volume of 200 μl) of 100 μg optimized Trp1455/9M peptide,[10c] 50 μg anti-CD40 monoclonal antibody (Clone; FGk-45.5), and 50 μg TLR2 agonist (10, Pam2CSK4, or Pam3CSK4). […] The response of tetramer positive CD8 T cells in the blood was measured on day 7, 21 and 34 by tetramer staining. For tetramer staining, peripheral blood was taken from the submandibular vein and treated briefly with ammonium chloride buffer to lyse red blood cells. Blood cells were stained with FITC-conjugated anti-MHC class II, PerCP Cy5.5-conjugated CD8a, and phycoerythrin-conjugated Trp1455/9M/H-2D^b tetramers for 40 min in ice. Fluorescence was evaluated using a FACSCalibur flow cytometer (BD Biosciences) and analyzed using FlowJo software.

Row | SMILES | NF-κB induced luciferase activity in non-expressing TLR2 cell line (parental HEK293 cells) | fluorescence of stained tetramer positive CD8 T cells [1] | maximum amount of fluorescently stained tetramer positive CD8 T cells [1]
1 | CCCCCCCCCCCCCCCC(=O)N[C@@H](CSCC(COC(=O)CCCCCCCCCCCCCCC)OC(=O)CCCCCCCCCCCCCCC)C(=O)N[C@@H](CO)C(=O)N[C@@H](CCCCN)C(=O)N[C@@H](CCCCN)C(=O)N[C@@H](CCCCN)C(=O)N[C@@H](CCCCN)C(=O)O (mixture of isomers) [Pam3CSK4, N-Palmitoyl-S-[2,3-bis(palmitoyloxy)-(2RS)-propyl]-[R]-cysteinyl-[S]-seryl-[S]-lysyl-[S]-lysyl-[S]-lysyl-[S]-lysine, reference compound] | did not exhibit any significant NF-κB luciferase activity; also recorded: did not exhibit significant NF-κB induced luciferase activity; also recorded: no measurable luminescence; also recorded: No activity was observed | High fluorescence | 51.7%
2 | CCCCCCCCCCCCCCCC(=O)OCC(CSC[C@H](N)C(=O)N[C@@H](CO)C(=O)N[C@@H](CCCCN)C(=O)N[C@@H](CCCCN)C(=O)N[C@@H](CCCCN)C(=O)N[C@@H](CCCCN)C(=O)O)OC(=O)CCCCCCCCCCCCCCC (mixture of isomers) [Pam2CSK4, S-[2,3-bis(palmitoyloxy)-(2RS)-propyl]-[R]-cysteinyl-[S]-seryl-[S]-lysyl-[S]-lysyl-[S]-lysyl-[S]-lysine, reference compound] | did not exhibit significant NF-κB induced luciferase activity | High fluorescence | 56.6%
